Results as given in the CheMixHub viscosity set.

Assay: xn = mol fraction of the nth substance listed

CCCCCCCC/C=C\CCCCCCCCO + CC(C)[C@@H]1CC[C@@H](C)C[C@H]1O
100 kPa, x2 = 0.5
Details	viscosity [mPa·s]
298.13 K	19.79
298.15 K	19.76
303.15 K	14.47
313.13 K	9.11
323.12 K	5.98

CCCC(=O)[O-].[NH3+]CCO + CCO
viscosity [mPa·s], 101 kPa
Details	x1 = 0.0158	x2 = 0.7685	x2 = 0.8306	x2 = 0.8824	x2 = 0.9289	x2 = 0.9483	x2 = 0.9671
293.15 K	1.608	15.79	8.436	4.968	2.91	2.364	1.944
298.15 K	1.458	13.23	7.272	4.398	2.598	2.148	1.752
303.15 K	1.35	11.24	6.33	3.882	2.34	1.92	1.602

O=P(O)(O)O + CCCCCCCCO
viscosity [mPa·s], 101 kPa
Details	x1 = 0.0266	x1 = 0.0485	x1 = 0.0865	x1 = 0.1055	x1 = 0.149	x1 = 0.1867	x1 = 0.2054	x1 = 0.2487	x1 = 0.2753	x1 = 0.3073
293.15 K	10.8	11.16	14.06	15.07	19.85	30.76	35.99	40.67	45.65	48.76
303.15 K	6.465	7.085	8.327	9.414	11.8	15.79	17.99	21.76	25.77	28
313.15 K	4.823	5.02	5.655	6.55	7.186	8.765	9.786	11.34	14.18	15.19
323.15 K	3.614	3.765	3.995	4.223	4.716	5.176	5.564	6.076	6.308	6.896

CC(=O)OCCC(C)C + C1CCCCC1
viscosity [mPa·s], 101 kPa
Details	298.15 K	308.15 K
x1 = 0.0292	0.862	0.73
x1 = 0.0895	0.813	0.686
x1 = 0.1448	0.776	0.653
x1 = 0.2104	0.74	0.621
x1 = 0.3069	0.7	0.587
x1 = 0.3512	0.687	0.577
x1 = 0.3964	0.676	0.569
x1 = 0.4958	0.661	0.561
x1 = 0.6222	0.661	0.57
x1 = 0.753	0.682	0.603
x1 = 0.9257	0.747	0.69

CC(=O)OCCC(C)C + CCCCCC
viscosity [mPa·s], 101 kPa
Details	298.15 K	308.15 K
x1 = 0.0521	0.303	0.286
x1 = 0.149	0.328	0.313
x1 = 0.2509	0.358	0.345
x1 = 0.3492	0.391	0.38
x1 = 0.4851	0.445	0.435
x1 = 0.5317	0.466	0.456
x1 = 0.5507	0.475	0.464
x1 = 0.6504	0.526	0.514
x1 = 0.7492	0.585	0.57
x1 = 0.8506	0.655	0.635
x1 = 0.9546	0.74	0.711

CC(=O)OCCC(C)C + Brc1ccccc1
viscosity [mPa·s], 101 kPa
Details	298.15 K	303.15 K	308.15 K	313.15 K
x1 = 0.0443	1.026	–	0.952	–
x1 = 0.0719	–	1.003	–	0.883
x1 = 0.1494	0.992	–	0.925	–
x1 = 0.1499	–	0.991	–	0.869
x1 = 0.2334	–	0.974	–	0.852
x1 = 0.2513	0.962	–	0.898	–
x1 = 0.3222	–	0.949	–	0.828
x1 = 0.3494	0.933	–	0.875	–
x1 = 0.4137	–	0.921	–	0.801
x1 = 0.4478	0.908	–	0.853	–
x1 = 0.4962	0.895	–	0.842	–
x1 = 0.509	–	0.893	–	0.774
x1 = 0.5517	0.881	–	0.83	–
x1 = 0.6182	–	0.859	–	0.743
x1 = 0.6512	0.857	–	0.811	–
x1 = 0.7358	–	0.823	–	0.711
x1 = 0.7497	0.834	–	0.792	–
x1 = 0.8504	0.812	–	0.773	–
x1 = 0.8603	–	0.787	–	0.677
x1 = 0.9487	0.791	–	0.756	–

CCCOCC(C)OCC(C)O (stereo unspecified) + CCCCCO
298.15 K, 101 kPa
Details	viscosity [mPa·s]
x1 = 0.0566	3.194
x1 = 0.1564	3.499
x1 = 0.2104	3.49
x1 = 0.2577	3.486
x1 = 0.3103	3.484
x1 = 0.3524	3.483
x1 = 0.4027	3.481
x1 = 0.4592	3.494
x1 = 0.5107	3.516
x1 = 0.5585	3.545
x1 = 0.6219	3.59
x1 = 0.6862	3.64
x1 = 0.7322	3.684
x1 = 0.7995	3.733
x1 = 0.9032	3.807
x1 = 0.9629	3.849
x2 = 0.0139	3.867

C=C(C)C(=O)OCc1ccccc1 + O=C1CCCCC1
viscosity [mPa·s], 101 kPa
Details	x2 = 0.1	x2 = 0.1999	x2 = 0.3	x2 = 0.3999	x2 = 0.5	x2 = 0.6	x2 = 0.7	x2 = 0.8	x2 = 0.9
298.15 K	2.208	2.141	2.079	2.038	2.002	1.972	1.95	1.943	1.934
308.15 K	1.816	1.765	1.718	1.687	1.656	1.632	1.617	1.602	1.589
318.15 K	1.519	1.484	1.447	1.422	1.398	1.383	1.369	1.356	1.348

N[C@@H](Cc1c[nH]c2ccccc12)C(=O)O + O
303 K, 100 kPa
Details	viscosity [mPa·s]
x1 = 0.087	0.934
x1 = 0.0954	1
x1 = 0.0971	1.018
x1 = 0.0979	1.055
x1 = 0.0983	1.077
x1 = 0.0985	1.101

CC(C)COCCO + O
298.15 K, 101 kPa
Details	viscosity [mPa·s]
x1 = 0.0037	0.9
x1 = 0.016	1.2
x1 = 0.0469	2.4
x1 = 0.0611	2.7
x1 = 0.11	3.65
x1 = 0.177	4.27
x1 = 0.263	4.4
x1 = 0.764	3.7

OCCC(O)CO (stereo unspecified) + O
viscosity [mPa·s], 101 kPa
Details	293.15 K	298.15 K	303.15 K	308.15 K	313.15 K	318.15 K	323.15 K
x1 = 0.005	1.089	0.984	0.889	0.798	0.7	0.656	0.595
x1 = 0.01	1.271	1.096	0.968	0.863	0.769	0.703	0.626
x1 = 0.015	1.46	1.193	1.067	0.942	0.853	0.77	0.678
x1 = 0.02	1.617	1.328	1.195	1.058	0.937	0.857	0.732

CC(=O)OCCC(C)C + ClC(Cl)(Cl)Cl
303.15 K, 101.3 kPa
Details	viscosity [mPa·s]
x1 = 0.1037	0.8143
x1 = 0.1985	0.8011
x1 = 0.302	0.7904
x1 = 0.4018	0.7782
x1 = 0.5027	0.7656
x1 = 0.603	0.7549
x1 = 0.7015	0.7451
x1 = 0.7985	0.7325
x1 = 0.9013	0.7155

CCCCCCCC/C=C\CCCCCCCC(=O)OCC + CCCCCCCCCCCCCCCC
viscosity [mPa·s], 100 kPa
Details	x1 = 0.1	x1 = 0.2	x1 = 0.3	x1 = 0.4	x1 = 0.5	x1 = 0.6	x1 = 0.7	x1 = 0.8	x1 = 0.9
293.15 K	3.595	3.805	4.056	4.336	4.643	4.964	5.309	5.671	6.032
298.15 K	3.195	3.382	3.599	3.849	4.12	4.405	4.704	5.019	5.335
303.15 K	2.852	3.009	3.2	3.422	3.657	3.906	4.163	4.434	4.708
308.15 K	2.56	2.705	2.873	3.065	3.269	3.485	3.71	3.946	4.185
313.15 K	2.314	2.443	2.589	2.755	2.928	3.113	3.306	3.508	3.715
318.15 K	2.1	2.217	2.351	2.504	2.662	2.83	3.004	3.186	3.372
323.15 K	1.917	2.023	2.144	2.28	2.421	2.571	2.723	2.887	3.053

CC(=O)OCCC(C)C + Cc1cccc(C)c1
viscosity [mPa·s], 101 kPa
Details	298.15 K	308.15 K
x1 = 0.0471	0.58	0.529
x1 = 0.1507	0.583	0.538
x1 = 0.286	0.593	0.555
x1 = 0.3495	0.599	0.564
x1 = 0.4475	0.614	0.582
x1 = 0.5021	0.625	0.594
x1 = 0.5481	0.634	0.604
x1 = 0.6499	0.659	0.63
x1 = 0.7526	0.69	0.66
x1 = 0.8535	0.724	0.693
x1 = 0.942	0.757	0.725

CC(=O)OCCC(C)C + Clc1ccccc1
viscosity [mPa·s], 101 kPa
Details	298.15 K	303.15 K	308.15 K	313.15 K
x1 = 0.0458	0.75	–	0.678	–
x1 = 0.0705	–	0.718	–	0.634
x1 = 0.1467	–	0.729	–	0.643
x1 = 0.1506	0.741	–	0.676	–
x1 = 0.2271	–	0.74	–	0.654
x1 = 0.251	0.735	–	0.677	–
x1 = 0.3141	–	0.751	–	0.662
x1 = 0.3515	0.732	–	0.681	–
x1 = 0.4073	–	0.758	–	0.669
x1 = 0.4513	0.731	–	0.684	–
x1 = 0.4998	0.732	–	0.687	–
x1 = 0.5006	–	0.767	–	0.675
x1 = 0.5511	0.734	–	0.691	–
x1 = 0.6085	–	0.768	–	0.674
x1 = 0.6517	0.739	–	0.699	–
x1 = 0.728	–	0.766	–	0.671
x1 = 0.7519	0.747	–	0.71	–
x1 = 0.8507	0.758	–	0.723	–
x1 = 0.8573	–	0.758	–	0.661
x1 = 0.9448	0.772	–	0.737	–

CC(=O)OCCC(C)C + CCCCN
303.15 K, 101 kPa
Details	viscosity [mPa·s]
x2 = 0.2734	0.7086
x2 = 0.4416	0.6996
x2 = 0.5646	0.6833
x2 = 0.6446	0.6711
x2 = 0.7489	0.6443
x2 = 0.8075	0.6212
x2 = 0.8664	0.5934
x2 = 0.8969	0.5868

CCCOCC(C)OCC(C)O (stereo unspecified) + CCO
viscosity [mPa·s], 101.33 kPa
Details	298.15 K	308.15 K	318.15 K
x1 = 0.05	1.27	1.046	0.872
x1 = 0.1	1.446	1.181	0.978
x1 = 0.15	1.621	1.315	1.081
x1 = 0.2	1.799	1.446	1.18
x1 = 0.25	1.994	1.572	1.278
x1 = 0.3	2.144	1.706	1.374
x1 = 0.3501	2.322	1.83	1.468
x1 = 0.4	2.485	1.944	1.55
x1 = 0.4501	2.643	2.055	1.631
x1 = 0.5	2.795	2.163	1.705
x1 = 0.55	2.942	2.27	1.777
x1 = 0.6	3.081	2.367	1.842
x1 = 0.6497	3.218	2.463	1.905
x1 = 0.6996	3.343	2.55	1.965
x1 = 0.7496	3.475	2.627	2.02
x1 = 0.8	3.593	2.702	2.081
x1 = 0.8499	3.704	2.764	2.131
x1 = 0.8999	3.807	2.839	2.177
x1 = 0.95	3.896	2.906	2.215

CCCCCCCC/C=C\CCCCCCCC(=O)OCC + CCCO
Details	viscosity [mPa·s]
303.15 K, 101 kPa, x2 = 0.2	4.435

CC(=O)Nc1ccccc1 + CC(=O)O
viscosity [mPa·s], 101.3 kPa
Details	x1 = 0.1	x1 = 0.204	x1 = 0.288
298.15 K	19	30.2	43.6
323.15 K	11.8	18.2	27.7

CCOP(OCC)OCC + c1ccncc1
298.15 K, 101 kPa
Details	viscosity [mPa·s]
x1 = 0.2	0.792
x1 = 0.4	0.76
x1 = 0.6	0.738
x1 = 0.8	0.707
